# Experimental data taken from PMC10178848, “Modulating fast skeletal muscle contraction protects skeletal muscle in animal models of Duchenne muscular dystrophy” (The Journal of Clinical Investigation, 2023).
# System: mdx mouse EDL muscle
# Assay: Phosphoprotein array analysis (Cell Signaling Phospho Antibody Array)
# Conditions: phospho/total, T vs C
# Protocol: mdx mouse EDL muscle was prepared for ex vivo analysis as described (n = 5). Muscles were incubated for 1 hour with DMSO or EDG-5506 (5 μM) and then flash frozen in liquid nitrogen. Tissue preparation and analysis were performed as recommended by the manufacturer (Cell Signaling Phospho Antibody Array, Full Moon Biosystems).
smiles,measurement,value
O=c1ccc(-c2cnc(OCC(F)(F)F)nc2)nn1Cc1cncc(F)c1 [EDG-5506],Ratio (T/C): Integrin beta-3 (Phospho-Tyr773) to total Integrin beta-3 (Ab-773),0.8566
same,Ratio (T/C): Interferon-gamma receptor alpha (Phospho-Tyr457) to total Interferon-alpha/beta receptor alpha chain (Ab-466),0.992
same,Ratio (T/C): JAK2 (Phospho-Tyr221) to total JAK2 (Ab-1007),0.5849
same,Ratio (T/C): JunB (Phospho-Ser259) to total JunB (Ab-259),0.7783
same,Ratio (T/C): LKB1 (Phospho-Thr189) to total LKB1 (Ab-334),1.099
same,Ratio (T/C): LYN (Phospho-Tyr507) to total LYN (Ab-507),1.819
same,Ratio (T/C): Lamin A/C (Phospho-Ser392) to total Lamin A/C (Ab-392),0.4365
same,Ratio (T/C): MDM2 (Phospho-Ser166) to total MDM2 (Ab-166),0.7195
same,Ratio (T/C): MEK1 (Phospho-Ser217) to total MEK1 (Ab-291),0.8093
same,Ratio (T/C): MEK1 (Phospho-Ser221) to total MEK1 (Ab-291),1.481
same,Ratio (T/C): MITF (Phospho-Ser73) to total MITF (Ab-73),0.8065
same,Ratio (T/C): MSK1 (Phospho-Ser376) to total MSK1 (Ab-360),1.21
same,Ratio (T/C): Myc (Phospho-Ser62) to total Myc (Ab-58),0.9423
same,Ratio (T/C): NFkB-p65 (Phospho-Ser311) to total NFkB-p65 (Ab-529),0.8783
same,Ratio (T/C): NFkB-p65 (Phospho-Ser529) to total NFkB-p65 (Ab-529),0.8263
same,Ratio (T/C): NFkB-p100/p52 (Phospho-Ser865) to total NFkB-p100/p52 (Ab-865),1.159
same,Ratio (T/C): NFkB-p105/p50 (Phospho-Ser337) to total NFkB-p105/p50 (Ab-927),1.219
same,Ratio (T/C): P38 MAPK (Phospho-Thr180/Tyr182) to total P38 MAPK (Ab-182),0.2071
same,Ratio (T/C): P70S6K (Phospho-Ser424) to total P70S6K (Ab-229),0.7495
same,Ratio (T/C): P70S6K (Phospho-Thr421) to total P70S6K (Ab-229),1.055
same,Ratio (T/C): P73 (Phospho-Tyr99) to total P73 (Ab-99),1.0107
same,Ratio (T/C): P90RSK (Phospho-Thr359/Ser363) to total P90RSK (Ab-359/363),0.8912
same,Ratio (T/C): PDK1 (Phospho-Ser241) to total PDK1 (Ab-241),0.9138
same,Ratio (T/C): PLCG1 (Phospho-Tyr783) to total PLCG1 (Ab-783),1.902
same,Ratio (T/C): PLK1 (Phospho-Thr210) to total PLK1 (Ab-210),0.3997
same,Ratio (T/C): PP1 alpha (Phospho-Thr320) to total PP1 alpha (Ab-320),0.867
same,Ratio (T/C): PP2A-alpha (Phospho-Tyr307) to total PP2A-alpha (Ab-307),0.7589
same,Ratio (T/C): PPAR-gamma (Phospho-Ser112) to total PPAR-gamma (Ab-112),0.8451
same,Ratio (T/C): PTEN (Phospho-Ser380/Thr382/Thr383) to total PTEN (Ab-380),0.6925
same,Ratio (T/C): RSK1/2/3/4 (Phospho-Ser221/227/218/232) to total RSK1/2/3/4 (Ab-221/227/218/232),1.05
same,Ratio (T/C): Raf1 (Phospho-Ser259) to total Raf1 (Ab-43),0.9472
same,Ratio (T/C): Rb (Phospho-Ser608) to total Rb (Ab-807),0.5194
same,Ratio (T/C): Rb (Phospho-Ser807) to total Rb (Ab-807),0.4329
same,Ratio (T/C): RelB (Phospho-Ser552) to total RelB (Ab-552),0.7768
same,Ratio (T/C): SHP-2 (Phospho-Tyr542) to total SHP-2 (Ab-542),0.9242
same,Ratio (T/C): SRF (Phospho-Ser99) to total SRF (Ab-99),0.6381
same,Ratio (T/C): STAT2 (Phospho-Tyr690) to total STAT2 (Ab-690),1.1086
same,Ratio (T/C): STAT3 (Phospho-Tyr705) to total STAT3 (Ab-705),0.8721
same,Ratio (T/C): STAT5B (Phospho-Ser731) to total STAT5B (Ab-731),1.008
same,Ratio (T/C): STAT6 (Phospho-Thr645) to total STAT6 (Ab-645),0.7953
same,Ratio (T/C): SYK (Phospho-Tyr348) to total SYK (Ab-525),0.9191
same,Ratio (T/C): Shc (Phospho-Tyr349) to total Shc (Ab-349),1.943
same,Ratio (T/C): Smad1 (Phospho-Ser187) to total Smad1 (Ab-465),1.9576
same,Ratio (T/C): Smad2 (Phospho-Ser467) to total Smad2 (Ab-255),0.3873
same,Ratio (T/C): Smad2/3 (Phospho-Thr8) to total Smad2 (Ab-255),0.779
same,Ratio (T/C): Smad3 (Phospho-Ser213) to total Smad3 (Ab-425),2.4313
same,Ratio (T/C): Src (Phospho-Tyr418) to total Src (Ab-418),0.4536
same,Ratio (T/C): Synuclein alpha (Phospho-Tyr136) to total Synuclein alpha (Ab-125),1.009
same,Ratio (T/C): Tau (Phospho-Ser235) to total Tau (Ab-235),0.4913
same,Ratio (T/C): Tau (Phospho-Ser396) to total Tau (Ab-235),0.4515
same,Ratio (T/C): Trk B (Phospho-Tyr515) to total Trk B (Ab-515),0.8791
same,Ratio (T/C): VEGFR2 (Phospho-Tyr1175) to total VEGFR2 (Ab-1214),0.7882
same,Ratio (T/C): VEGFR2 (Phospho-Tyr1214) to total VEGFR2 (Ab-1214),1.1348
same,Ratio (T/C): Zap-70 (Phospho-Tyr319) to total Zap-70 (Ab-319),0.9346
same,Ratio (T/C): c-Jun (Phospho-Ser73) to total c-Jun (Ab-243),0.8772
same,Ratio (T/C): eEF2K (Phospho-Ser366) to total eEF2K (Ab-366),0.5517
same,Ratio (T/C): eIF2A (Phospho-Ser51) to total eIF2A (Ab-51),1.082
same,Ratio (T/C): eNOS (Phospho-Ser615) to total eNOS (Ab-1179),1.215
same,Ratio (T/C): mTOR (Phospho-Ser2481) to total mTOR (Ab-2481),1.125
same,Ratio (T/C): p44/42 MAP Kinase (Phospho-Tyr204) to total p44/42 MAP Kinase (Ab-202),0.9379
same,Ratio (T/C): p53 (Phospho-Ser9) to total p53 (Ab-315),0.8012
same,Ratio (T/C): p53 (Phospho-Ser15) to total p53 (Ab-315),0.1195
same,Ratio (T/C): p53 (Phospho-Ser315) to total p53 (Ab-315),0.641
